Patent US20240262835A1, “PRMT5 INHIBITING COMPOUNDS AND USES THEREOF” (ANTENGENE DISCOVERY LIMITED, priority 2023, published 2024)

Tests used:
[1] = Caco-2 cell monolayer model assay (permeability); type: in vitro ADME; conditions: human
Experimental: (§1) Caco-2 cell model was used to assess the permeability of the compounds disclosed herein. Caco-2 cell was obtained from the CO-BIOR and the CO-BIOR Number is CBP60025. The cell generation used in the experiment was P9.
(§2) 1) […] of cell culture medium was added to each well of the Transwell reservoir, respectively. And then the PET transwell plates were incubated at 37° C., 5% CO2 for 1 hour before cell seeding.
(§3) 2) Caco-2 cells were diluted to 3.43×10^5 cells/mL with culture medium and 100 μL of cell suspension were dispensed into the filter well of the 96-well PET Transwell plate. Cells were cultivated for 14-18 days in a cell culture incubator at 37° C., 5% CO2, 95% relative humidity. Cell culture medium was replaced every other day, beginning no later than 24 hours after initial plating.
(§4) 3) Measure the electrical resistance across the monolayer by using Millicell Epithelial Volt-Ohm measuring system. Record the electrical resistance for each well. Once all wells have been measured, return the plate(s) to the incubator.
(§5) 4) TEER of each well is calculated by the equation below. The TEER value of each well should be greater than 230 ohms·cm^2.
(§6) 1) Remove the Caco-2 plate(s) from the incubator. Wash the monolayer twice with pre-warmed HBSS (10 mM HEPES, pH 7.4). Then incubate the plate(s) at 37° C. for 30 minutes.
(§7) 2) Prepare stock solutions of control compounds in DMSO at 5 mM and dilute with HBSS (10 mM HEPES, pH 7.4) to get 5 μM working solutions. Prepare stock solutions of test compounds in DMSO at 1 mM and dilute with HBSS (10 mM HEPES, pH 7.4) to get 1 μM working solutions. Digoxin is used as the reference substrate of Pgp. Atenolol is used as the low permeability marker, minoxidil is used as the high permeability marker.
(§8) 3) To determine the rate of drug transport in the apical to basolateral direction, add 100 μL of the working donor solutions (without inhibitor) to the Transwell insert (apical compartment). Fill the wells in the receiver plate (basolateral compartment) with 300 μL of transport buffer. To determine the rate of drug transport in the basolateral to apical direction, add 300 μL of the working donor solutions (without inhibitor) to the receiver plate wells (basolateral compartment). Fill the Transwell insert (apical compartment) with 100 μL of transport buffer.
(§9) 4) Transfer 50 μL samples from the working solutions to 300 μL of cold MeOH:acetonitrile=1:1 with IS (50 ng/ml Labetalol, 50 ng/ml Tolbutamide) to prepare the time 0 samples. Incubate the Transwell plate at 37° C., 5% CO2 with shaking at 60 rpm on a rotary shaker for 2 hours.
(§10) 5) At the end of the transport period, transfer 50 μL of samples from apical and basolateral wells to a new 96-well plate. Add 300 μL of quenching solution (MeOH:acetonitrile=1:1 with IS (50 ng/ml Labetalol, 50 ng/mL Tolbutamide)) into each well of the plate(s). Vortex for 10 minutes. Samples are centrifuged at 4000 rpm g for 30 minutes. An aliquot of 100 μL of the supernatant is mixed with an appropriate volume of ultra-pure water (depends on the LC-MS/MS signal response and peak shape) before LC-MS/MS analysis.
(§11) 6) To determine the Lucifer Yellow leakage after 2-hour transport period, prepare stock solutions of Lucifer yellow in DMSO and dilute with HBSS (10 mM HEPES, pH 7.4) to reach the final concentration of 100 μM. Add 100 μL of the Lucifer yellow solution to the apical compartment. Fill the basolateral compartment with 300 μL of HBSS (10 mM HEPES, pH 7.4). Incubate the plate(s) at 37° C. for 30 minutes and remove 80 μL directly from the apical and basolateral wells and transfer to new 96 wells plates. Measure Lucifer Yellow fluorescence (to monitor monolayer integrity) in a fluorescence plate reader at 485 nm excitation and 530 nm emission.
(§12) 7) Discard the remaining solution in the cell plate, Add 300 μL of quenching solution (MeOH:acetonitrile=1:1 with IS (50 ng/ml Labetalol, 50 ng/mL Tolbutamide)) into each well of the plate(s), blow up and down and mix well for 5 times. […]

in vitro = conditions: cynomolgus monkey, microsomes
Caco-2 cell monolayer = Caco-2 cell monolayer model assay (permeability); type: in vitro ADME; conditions: Caco-2, 1 μM
Experimental: as §1, §2, §3, §4, §5, §6, §7, §8, §9, §10, §11, §12

[2] = system: cryopreserved hepatocytes
Experimental: 1) 10 mM test compounds were provided.
(§13) 2) 30 mM positive control stock solutions: Dissolved accurate amount of positive control compounds in dimethyl sulfoxide (DMSO).
(§14) 3) 1000× Stock Solution: Diluted 10 mM test compounds and 30 mM positive control compounds to 1 mM and 3 mM with DMSO in 96-well plates.
(§15) 4) 100× Dosing Solution: Diluted 1 mM test compounds and 3 mM positive control compounds to 100 μM and 300 μM dosing solutions with ACN.
(§16) 5) Preparation of 0.5×10^6/mL cells suspension: cryopreserved cells were thawed, isolated and suspended in Incubation Medium, then diluted with pre-warmed Incubation Medium to 0.5×10^6 cells/mL.
(§17) 6) Add 198 μL of pre-warmed cell suspensions in 96-well plates.
(§18) 7) Preparation of Quenching Plate: Transfer 125 μL of stop solution in a set of pre-labeled 96-well plates.
(§19) 8) Spike 2 μL dosing solution to each well of 96-well plates in duplicate.
(§20) 9) For TO Samples, mix to achieve a homogenous suspension for about 1 min, then immediately transfer 25 μL of each sample into well containing 125 μL of ice-cold stop solution followed by mixing.
(§21) 10) Incubate all plates at 37° C. in a 95% humidified incubator at 5% CO2 to start the reactions with constant shaking.
(§22) 11) At 15, 30, 60 and 90 min, mix samples and then transfer 25 μL of each sample at each time point to well containing 125 μL of ice-cold stop solution followed by mixing.
(§23) 12) Medium Control (MC) sample plates (labeled as TO-MC and T90-MC) are prepared in the same way as cell incubation except that medium was used instead of cell suspension.
(§24) 13) At each corresponding time point, stop the reactions by removing the plates from incubator and mixing with 125 μL of ice-cold stop solution.
(§25) 14) Vortex the plates immediately on a plate shaker at 600 rpm for 10 minutes. Then, centrifuge all sample plates at 3220×g for 20 min at 4° C.
(§26) 15) After centrifugation, 80 μL/well of supernatant in the sample plates are transferred to another set of pre-labeled 96-well plates which containing 240 μL of ultra pure water according to the plate map.
(§27) 16) Analytical plates are sealed and store at 4° C. until LC-MS/MS analysis.
(§28) The remaining percents of test articles after incubation were calculated by the follow equations:
(§29) Use the following equation of first order kinetics to calculate T1/2 and CLint:

[3] = system: cryopreserved hepatocytes; remark: listed apart in the source
Experimental: 1) 10 mM test compounds were provided.
as §13, §14, §15, §16, §17, §18, §19, §20, §21, §22, §23, §24, §25, §26, §27, §28, §29

[4] = mouse, microsomes
CYP2D6 = CYP2D6 (Homo sapiens (Human), UniProt P10635); test: CYP isoforms inhibitory assay in human liver microsome, CYP2D6; conditions: read-out: IC50 CYP2D6, substrate dextromethorphan
Chain of CYP2D6 (P10635 whole entry, canonical isoform): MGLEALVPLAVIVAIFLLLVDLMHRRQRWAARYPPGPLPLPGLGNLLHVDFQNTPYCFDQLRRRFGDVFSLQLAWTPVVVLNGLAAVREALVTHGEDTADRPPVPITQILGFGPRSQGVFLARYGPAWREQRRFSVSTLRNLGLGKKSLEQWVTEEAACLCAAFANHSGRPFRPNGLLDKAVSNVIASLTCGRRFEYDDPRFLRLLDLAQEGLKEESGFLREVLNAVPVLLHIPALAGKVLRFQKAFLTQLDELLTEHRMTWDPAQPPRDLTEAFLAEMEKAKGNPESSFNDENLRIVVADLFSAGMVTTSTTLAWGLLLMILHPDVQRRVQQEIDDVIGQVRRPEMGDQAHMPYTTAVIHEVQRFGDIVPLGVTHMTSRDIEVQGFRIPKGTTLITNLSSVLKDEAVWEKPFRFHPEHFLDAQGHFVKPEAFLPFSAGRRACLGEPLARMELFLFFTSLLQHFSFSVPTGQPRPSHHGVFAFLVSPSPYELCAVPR
Experimental: CYP isoforms inhibitory activities of test compounds were measured in human liver microsome.
Preparation details of these substrates are given in below table. The substrate stock solution was stored in a −20° C. freezer. Prior to use, the substrate stock solution was removed from the freezer and allowed to rise to room temperature. Then the substrate stock solution was mixed on a whirly mixer for 30 seconds.
HLMs were stored in a −80° C. freezer. Prior to use, the pooled HLM was removed from the freezer and allowed to thaw in a 37° C. water bath and then stored on wet ice.
The positive control inhibitors and their concentrations used by each isozyme are summarized below.
All samples were incubated in a 37° C. water bath, with three parallels for each concentration of the test compound and two parallels for each concentration of the positive control inhibitor. 100 μL of microsome working solution was taken and added 2 μL of the test product or positive inhibitor working solution. 2 μL solvents was added to the solvent control, and put in a water bath to pre-incubate for 10 min. After pre-incubation, 98 μL of NADPH regeneration solution was added to all samples to start the reaction. Then the mixture was put back in the water bath and incubated for a certain period of time.
The reaction was quenched by 200 μL stop solution. […]
IC50 values were determined using 3- or 4-parameter logistic equation.

[5] = system: cryopreserved hepatocytes; remark: listed apart in the source
Experimental: 1) 10 mM test compounds were provided.
as §13, §14, §15, §16, §17, §18, §19, §20, §21, §22, §23, §24, §25, §26, §27, §28, §29

[6] = Liver microsome metabolic stability (LMS) assay, dog

Compound: CN(C(=O)c1ccc2nc(N)c3cncn3c2c1)[C@@H]1COc2cc(C(F)(F)F)ccc21 [Compound 12]
- efflux ratio at 2 h, 1 μM ([1]; Caco-2, pH 7.4): 1.98
- Papp A→B at 2 h, 1 μM ([1]; Caco-2, 1 μM, 2 hours, pH 7.4): 6.07 ×10⁻⁶ cm/s
- Papp B→A at 2 h, 1 μM ([1]; Caco-2, 1 μM, 2 hours, pH 7.4): 12 ×10⁻⁶ cm/s
- half-life at 1 μM (in vitro): 0.935 h

Compound: CN(C(=O)c1ccc2nc(N)c3cncn3c2c1)C1COc2cc(C(F)(F)F)ccc21 (centres unmarked) [Compound 17]
- Recovery AP − BL (Caco-2 cell monolayer): 81.0%
- Recovery BL − AP (Caco-2 cell monolayer): 85.6%
- Papp (A−B) (Caco-2 cell monolayer; 2 hours, pH 7.4): 6.70 10^−6 cm/s
- Papp (B−A) (Caco-2 cell monolayer; 2 hours, pH 7.4): 11.8 10^−6 cm/s
- Efflux Ratio (Caco-2 cell monolayer; Papp (B-A)/Papp (A-B)): 1.76
- CLint (liver) H [2]: 20.2 mL/min/kg
- CLint (hep) H ([2]; human): 7.3 μL/min/10^6
- T1/2 (hepatocytes) H ([2]; human): 3.18 h
- CLint (liver) D [3]: 46.9 mL/min/kg
- CLint (hep) D ([3]; dog): 6.8 μL/min/10^6
- T1/2 (hepatocytes) D ([3]; dog): 3.39 h
- T1/2 of LMS, M [4]: 1.61 h
- IC50 (CYP2D6): > 30 µM
- CLint (liver) C [5]: 62.0 mL/min/kg
- CLint (hep) C ([5]; cynomolgus monkey): 17.2 μL/min/10^6
- T1/2 (hepatocytes) C ([5]; cynomolgus monkey): 1.34 h

Compound: CN(C(=O)c1cc2c(cn1)nc(N)c1cncn12)C1CC(F)(F)c2cc(C(F)(F)F)ccc21 (centres unmarked) [Compound 24]
- CLint (mic) D ([6]; dog liver microsome): <9.6 µL/min/mg
- T1/2 of LMS, D ([6]; dog liver microsome 0.5 mg protein/mL, 1 μM, NADPH): >2.42 h
- CLint (liver) D ([6]; dog liver microsome, scaled to liver): <13.8 mL/min/kg
